From patent publication US20120035247A1, “RNA Interference Mediated Inhibition of Signal Transducer and Activator of Transcription 6 (STAT6) Gene Expression Using Short Interfering Nucleic Acid (siNA)” (Merck Sharp & Dohme Corp., priority 2009, published 2012) come the findings set out here.

[invAb] = inverted abasic unit; d = 2'-deoxy (DNA); m = 2'-O-methyl; r = 2'-OH (RNA); f = 2'-fluoro

Data set [1] deals with STAT6 mRNA. As to the kind of experiment: STAT6 siNA screen and dose response in human A549 cells, STAT6 mRNA by quantitative RT-PCR (Taqman). It counts as cell-based. The following applies: human A549 cells, 10 nM siNA, 24 hrs, normalized to GAPDH and non-targeting control, mean ± S.D., n = 3. As for the experimental part: A549 (human; ATCC cat# CCL-185): Cells were cultured at 37° C. in the presence of 5% CO2 and grown in Ham's F12K medium with 2 mM L-glutamine adjusted to contain 1.5 g/L sodium bicarbonate and supplemented with fetal bovine serum at a final concentration of 10%, 100 μg/mL of streptomycin, and 100 U/mL penicillin.
(§1) Cells were plated in all wells of a tissue-culture treated, 96-well plate at a final count of 5000 cells/well in […], of the appropriate culture media. The cells were cultured for 24 hours after plating at 37° C. in the presence of 5% CO2.
(§2) After 24 hours, complexes containing siNA and RNAiMax were created as follows: A solution of RNAiMax diluted 33-fold in OPTI-MEM was prepared. In parallel, solutions of the siNAs for testing were prepared to a final concentration of 120 nM in OPTI-MEM. After incubation of RNAiMax/OPTI-MEM solution at room temperature for 5 min, an equal volume of the siNA solution and the RNAiMax solution were added together for each of the siNAs.
(§3) This solution was incubated at room temperature for 20 minutes. After incubation, 20 uL of the solution was added to each of the relevant wells. The final concentration of siNA in each well was 10 nM and the final volume of RNAiMax in each well was 0.3u1.
(§4) The time of incubation with the RNAiMax-siNA complexes was 24 hours and there was no change in media between transfection and harvesting, unless otherwise indicated.
(§5) RNA was extracted from a 96-well plate using the TaqMan® Gene Expression Cells-to-CT™ Kit (Cat#4399002) with a modified protocol. Briefly, a 60 uL (1 plate) or 110 uL (2 plates) of the Lysis Solution with DNase I was dispensed into each well of the Lysis Buffer Plate (twin.tec full skirt plate). The lysis buffer and stop plates were stored at 4° C. until the cells were washed.
(§6) The plate was spun at 1100 rpm for 5 minutes. The culture medium was aspirated and discarded from the wells of the culture plate. The lysis was performed automatically using a BioMek FX instrument and method. After the Biomek method was completed, the lysis plate was incubated for 2 min. at room temperature. The lysis plate can be stored for 2 hours at 4° C., or at −20° C. or −80° C. for two months.
(§7) Each well of the reverse transcription plate required 10 uL of 2× reverse transcriptase Buffer, luL of 20× reverse transcription enzyme and 2 uL of nuclease-free water. The reverse transcription master mix was prepared by mixing 2× reverse transcription buffer, 20× reverse transcription enzyme mix, and nuclease-free water. 13 uL of the reverse transcription master mix was dispensed into each well of the reverse transcription plate (semi-skirted). A separate reverse transcription plate was prepared for each cell plate. The plate was loaded onto a Biomek NX or Biomek FX Dual-96 and the Biomek method was run. The program is programmed to automatically added 7 uL of lysate from the cell lysis procedure described above into each well of the reverse transcription plate. The plate is sealed and spun on a centrifuge (1000 rpm for 30 seconds) to settle the contents to the bottom of the reverse transcription plate. The plate is placed in a thermocycler at 37° C. for 60 min, 95° C. for 5 min, and 4° C. until the plate is removed from the thermocycler. Upon removal, if not used immediately, the plate was frozen at −20° C.
(§8) A series of probes and primers were used to detect the various mRNA transcripts of the genes of 13-Actin (human cell line only), and of STATE and GAPDH in mouse and human cell lines. All Taqman probes and primers for the experiments here-in described were supplied as pre-validated sets by Applied Biosystems, Inc. (see Table 2).
The assays were performed on an ABI 7900 instrument, according to the manufacturer's instructions. A TaqMan Gene Expression Master Mix (provided in the Cells-to-CTT™, Applied Biosystems, Cat #4399002) was used. The PCR reactions were carried out at 50° C. for 2 min, 95° C. for 20 min followed by 40 cycles at 95° C. for 15 secs and 60° C. for 1 min. […]

Data set [2] has as its system STAT6 mRNA. As to the kind of experiment: STAT6 siNA screen in mouse NIH 3T3 cells, STAT6 mRNA by quantitative RT-PCR (Taqman). It counts as cell-based. To be noted: mouse NIH3T3 cells, 10 nM siNA, 24 hrs, normalized to GAPDH and non-targeting control, n = 2. As for the experimental part: NIH 3T3 (mouse; ATCC cat# CRL-1658): Cells were cultured at 37° C. in the presence of 5% CO2 and grown in Dulbecco's modified Eagle's medium (DMEM) with 4 mM L-glutamine adjusted to contain 1.5 g/L sodium bicarbonate and 4.5 g/L glucose and supplemented with fetal bovine serum at a final concentration of 10%, 100 μg/mL of streptomycin, and 100 U/mL penicillin.
as §1, §2, §3, §4, §5, §6, §7, §8
The assays were performed on an ABI 7900 instrument, according to the manufacturer's instructions. A TaqMan Gene Expression Master Mix (provided in the Cells-to-CTT™, Applied Biosystems, Cat #4399002) was used. […]
A general note: Quantitative PCR measures a nucleic acid by following its amplification.

Consider “30001-DC: STAT6 siNA duplex; sense SEQ ID NO: 66, antisense SEQ ID NO: 67; target GAAAGCCUGGUGGACAUUU, site 956 (sense GAAAGCCUGGUGGACAUUUTT; antisense AAAUGUCCACCAGGCUUUCUU; sense: DNA at AGT, 2'-fluoro at CU, [invAb] at 5' end, 3' end, backbone not given here; antisense: sugars from the 5' end rrrfmfffmffmmmfffffmm, backbone not given here) [STAT6 siNA duplex; target GAAAGCCUGGUGGACAUUU, site 956]”, for which the “% KD STAT6” value is reported as 48.2 ± 5% with STAT6 mRNA [1] and −5.9 ± 6.6% with STAT6 mRNA [2].

In the case of “30002-DC: STAT6 siNA duplex; sense SEQ ID NO: 68, antisense SEQ ID NO: 69; target GAUAGAAACUCCUGCUAAU, site 766 (sense GAUAGAAACUCCUGCUAAUTT; antisense AUUAGCAGGAGUUUCUAUCUU; sense: DNA at AGT, 2'-fluoro at CU, [invAb] at 5' end, 3' end, backbone not given here; antisense: sugars from the 5' end rrrmmfmmmmmfffffmffmm, backbone not given here) [STAT6 siNA duplex; target GAUAGAAACUCCUGCUAAU, site 766]”, the entries for the “% KD STAT6” value in the data set on STAT6 mRNA [1] and in the data set on STAT6 mRNA [2] were 55.9 ± 9.4% and −22.3 ± 3.5%, respectively.

For “30003-DC: STAT6 siNA duplex; sense SEQ ID NO: 70, antisense SEQ ID NO: 71; target CGUGGAAAGGGACCAACCA, site 2218 (sense CGUGGAAAGGGACCAACCATT; antisense UGGUUGGUCCCUUUCCACGUU; sense: DNA at AGT, 2'-fluoro at CU, [invAb] at 5' end, 3' end, backbone not given here; antisense: sugars from the 5' end rrrffmmfffffffffmfmmm, backbone not given here) [STAT6 siNA duplex; target CGU…, site 2218]”, the “% KD STAT6” value in the data set on STAT6 mRNA [1] is reported as −11.1 ± 23.2%; in the data set on STAT6 mRNA [2], −22.6 ± 6.6%.

For “30004-DC: STAT6 siNA duplex; sense SEQ ID NO: 72, antisense SEQ ID NO: 73; target GCCUUCUUAUGACCUUGGA, site 2272 (sense GCCUUCUUAUGACCUUGGATT; antisense UCCAAGGUCAUAAGAAGGCUU; sense: DNA at AGT, 2'-fluoro at CU, [invAb] at 5' end, 3' end, backbone not given here; antisense: sugars from the 5' end rrrmmmmffmfmmmmmmmfmm, backbone not given here) [STAT6 siNA duplex; target GCCUUCUUAUGACCUUGGA, site 2272]”, the “% KD STAT6” value is 3.1 ± 19.6% with STAT6 mRNA [1] and −12.8 ± 9.1% in the data set with STAT6 mRNA [2].

In the case of “30006-DC: STAT6 siNA duplex; sense SEQ ID NO: 76, antisense SEQ ID NO: 77; target CCACUAUCCUGUGGGACAA, site 1542 (sense CCACUAUCCUGUGGGACAATT; antisense UUGUCCCACAGGAUAGUGGUU; sense: DNA at AGT, 2'-fluoro at CU, [invAb] at 5' end, 3' end, backbone not given here; antisense: sugars from the 5' end rrrffffmfmmmmfmmfmmmm, backbone not given here) [STAT6 siNA duplex; target CCACUAUCCUGUGGGACAA, site 1542]”, the results for the “% KD STAT6” value in the data set on STAT6 mRNA [1] and in the data set with STAT6 mRNA [2] were 72.9 ± 1.7% and −27.4 ± 8.5%, respectively.

For “30007-DC: STAT6 siNA duplex; sense SEQ ID NO: 78, antisense SEQ ID NO: 79; target GGAAGUUCAGGCUCUGAGA, site 3048 (sense GGAAGUUCAGGCUCUGAGATT; antisense UCUCAGAGCCUGAACUUCCUU; sense: sugars from the 5' end d5 f3 d3 f4 d6, [invAb] at 5' end, 3' end, backbone not given here; antisense: sugars from the 5' end rrrfmmmmfffmmmfffffmm, backbone not given here) [STAT6 siNA duplex; target GGAAGUUCAGGCUCUGAGA, site 3048]”, the entries for the “% KD STAT6” value in the data set on STAT6 mRNA [1] and in the data set on STAT6 mRNA [2] were 59.8 ± 8.6% and 8.1 ± 0.8%, respectively.

Take “30009-DC: STAT6 siNA duplex; sense SEQ ID NO: 82, antisense SEQ ID NO: 83; target GCUUUGCUCAGAUGUGACU, site 2538 (sense GCUUUGCUCAGAUGUGACUTT; antisense AGUCACAUCUGAGCAAAGCUU; sense: DNA at AGT, 2'-fluoro at CU, [invAb] at 5' end, 3' end, backbone not given here; antisense: sugars from the 5' end rrrfmfmfffmmmfmmmmfmm, backbone not given here) [STAT6 siNA duplex; target GCUUUGCUCAGAUGUGACU, site 2538]”: the “% KD STAT6” value in the data set on STAT6 mRNA [1] amounted to 63.5 ± 4.6%; in the data set on STAT6 mRNA [2], 72.7 ± 5.4%.

For the substance “30010-DC: STAT6 siNA duplex; sense SEQ ID NO: 84, antisense SEQ ID NO: 85; target GGGACAAUGCCUUCUCUGA, site 1568 (sense GGGACAAUGCCUUCUCUGATT; antisense UCAGAGAAGGCAUUGUCCCUU; sense: sugars from the 5' end dddrfddfdffffffffdddd, [invAb] at 5' end, 3' end, backbone not given here; antisense: sugars from the 5' end rrrmmmmmmmfmffmffffmm, backbone not given here) [STAT6 siNA duplex; target GGGACAAUGCCUUCUCUGA, site 1568]”, the “% KD STAT6” value in the data set with STAT6 mRNA [1] is recorded as 6 ± 23.6%; with STAT6 mRNA [2], −26.2 ± 0.2%.

Turning to “30011-DC: STAT6 siNA duplex; sense SEQ ID NO: 86, antisense SEQ ID NO: 87; target CCGAGAAUCUCUGCAGCAA, site 726 (sense CCGAGAAUCUCUGCAGCAATT; antisense UUGCUGCAGAGAUUCUCGGUU; sense: DNA at AGT, 2'-fluoro at CU, [invAb] at 5' end, 3' end, backbone not given here; antisense: sugars from the 5' end rrrffmfmmmmmfffffmmmm, backbone not given here) [STAT6 siNA duplex; target CCGAGAAUCUCUGCAGCAA, site 726]”, the figures for the “% KD STAT6” value in the data set with STAT6 mRNA [1] and in the data set with STAT6 mRNA [2] were 34.9 ± 11.5% and 53.4 ± 0.2%, respectively.
